Source: patent US5789604A, “Isolation, characterization and structures of new antibiotic components produced by fungal culture 07F275” (priority 1993, dated 1998)

Legend:
[1] = tested on: Cercospora beticola; test: in vivo evaluation as fungicidal agents, sugar beet cercospora
Protocol: (§1) in Vivo Evaluation as Fungicidal Agents (Table 2)
(§2) Compounds are dissolved in acetone, diluted to the desired concentration with water and surfactant and sprayed onto the test plants. After drying, the test plants are treated with fungal inoculum. When disease symptom development is optimal, plants are rated for disease control. Inoculated untreated plants, solvent/surfactant treated plants and plants treated with a reference standard are used for comparison.
SBC Sugar beet cercospora
(§3) Compounds are rated for control of each disease according to the rating scale shown below: […]

[2] = tested on: Venturia inaequalis; test: in vivo evaluation as fungicidal agents, apple scab
Protocol: as §1, §2
AS Apple scab Venturia inaequalis
as §3

[3] = tested on: Botrytis cinerea; test: in vivo evaluation as fungicidal agents, pepper botrytis
Protocol: as §1, §2
PB Pepper botrytis Botrytis cinerea
as §3

[4] = tested on: Alternaria solani; test: in vivo evaluation as fungicidal agents, tomato early blight
Protocol: as §1, §2, §3

[5] = tested on: Rhizoctonia solani Kuehn AG1 1A; test: in vitro inhibition of mycelial growth, RHIZSO; type: cell-based
Protocol: (§4) in Vitro Evaluation of the Inhibition of the Mycelial Growth by Target (Table 3)
(§5) Severe soilborne diseases such as damping off, seedling blight, crown rot, and root rot, among others are caused by certain plant pathogenic fungi. An in Vitro assay is conducted to determine whether test compounds will inhibit the mycelial growth of said fungi. Pathogens, the method of testing, and the rating system used are reported below.
(§6) General Procedure for the in Vitro Fungicide Screen Assay fungi included the following plant pathogens: FUSOXC Fusarium oxysporum Schlechtend: Fr.f.sp. cucumerinim J. H. Owen
(§7) RHIZSO Rhizoctonia solani Kuehn AG1 1A
(§8) The test compound (2.5-10 mg) is dissolved in 0.5 ml acetone, diluted with 4.5 ml sterile deionized water, and mixed with 95 ml of an autoclaved and partially cooled, chemically defined agar medium in a 250 ml flask. Test compounds that are insoluble are prepared as a fine suspension ultrasonically or with a glass tissue grinder, before addition to the medium. The chemically defined medium (CDM) used in these experiments is as follows:
(§9) CDM is sterilized by autoclaving or by filtration through a […]
(§10) The mixture of test compound and agar medium as described above is poured into several 100 mm×15 mm sterile plastic plates and allowed to solidify. The surface of each plate is inoculated with a single disc of mycelium and agar cut with an 8 mm diameter cork borer from actively growing cultures of assay fungi on a chemically defined agar medium. The plates are incubated at room temperature. Growth inhibition is determined when the mycelial growth on unamended control media has reached the edge of the petri plates. The time interval varies depending on the growth rate of the fungus. Each colony diameter is measured and compared with the untreated control and the percent inhibition is calculated as follows: [formula]
(§11) Each test includes a solvent blank consisting of the formulation without a test compound in addition to the untreated control.

[6] = tested on: Psudocercosporella herpotrichoides; test: in vitro inhibition of mycelial growth, PSDCHE; type: cell-based
Protocol: as §4, §5, §6
(§12) PSDCHE Psudocercosporella herpotrichoides Deighton
as §8, §9, §10, §11

[7] = tested on: Fusarium oxysporum Schlechtend: Fr.f.sp. cucumerinim; test: in vitro inhibition of mycelial growth, FUSOXC; type: cell-based
Protocol: as §4, §5, §6, §8, §9, §10, §11

[8] = tested on: Erysiphe graminis f.sp. tritici; test: in vivo evaluation as fungicidal agents, wheat powdery mildew
Protocol: as §1, §2
WPM Wheat powdery mildew
as §3

[9] = tested on: Leptosphaeria nodurum; test: in vivo evaluation as fungicidal agents, wheat septoria nodorum
[10] = tested on: other fungi; test: in vitro inhibition of mycelial growth, other fungi; type: cell-based
Protocol: as §4, §5, §6, §12, §7
The test compound (2.5-10 mg) is dissolved in 0.5 ml acetone, diluted with 4.5 ml sterile deionized water, and mixed with 95 ml of an autoclaved and partially cooled, chemically defined agar medium in a 250 ml flask. […]
The mixture of test compound and agar medium as described above is poured into several 100 mm×15 mm sterile plastic plates and allowed to solidify. […] Growth inhibition is determined when the mycelial growth on unamended control media has reached the edge of the petri plates. […] Each colony diameter is measured and compared with the untreated control and the percent inhibition is calculated as follows: [formula]

[11] = tested on: Pyricularia oryzae; conditions: in vivo
[12] = tested on: Plasmopara viticola; test: in vivo evaluation as fungicidal agents, grape downy mildew; conditions: for disease control rating GDM: grape downy mildew
Protocol: as §1, §2, §3

[13] = tested on: Pythium ultimam; test: in vitro inhibition of mycelial growth, PYTHUL; type: cell-based; conditions: for activity against Pythium: in vitro
Protocol: as §4, §5, §6
PYTHUL Pythium ultimam Trow
as §8, §9, §10, §11

O=C1[C@@H]2O[C@@H]2C2(Oc3cccc4cccc(c34)O2)[C@]23O[C@]12[C@H](O)C=CC3=O [07F275sigma]
disease control rating SBC ([1]; 12.5 ppm): 0 (0) | disease control rating SBC ([1]; 50.0 ppm): 0 (0) | disease control rating SBC ([1]; 200.0 ppm): 0 (0) | disease control rating AS ([2]; 12.5 ppm): 0 (0) | disease control rating AS ([2]; 50.0 ppm): 0 (0) | disease control rating AS ([2]; 200.0 ppm): 0 (0) | disease control rating PB ([3]; 12.5 ppm): 0 (0) | disease control rating PB ([3]; 50.0 ppm): 0 (0) | disease control rating PB ([3]; 200.0 ppm): 0 (0) | disease control rating TEB ([4]; 12.5 ppm): 0 (0) | disease control rating TEB ([4]; 50.0 ppm): 0 (0) | disease control rating TEB ([4]; 200.0 ppm): 0 (0) | mycelial inhibition RHIZSO ([5]; 1.0 ppm): 1 | mycelial inhibition RHIZSO ([5]; 10.0 ppm): 1 | mycelial inhibition RHIZSO ([5]; 25.0 ppm): 1 | mycelial inhibition PSDCHE ([6]; 1.0 ppm): 1 | mycelial inhibition PSDCHE ([6]; 10.0 ppm): 1 | mycelial inhibition PSDCHE ([6]; 25.0 ppm): 1 | mycelial inhibition FUSOXC ([7]; 1.0 ppm): 0 | mycelial inhibition FUSOXC ([7]; 10.0 ppm): 0 | mycelial inhibition FUSOXC ([7]; 25.0 ppm): 0 | disease control rating WPM ([8]; 12.5 ppm): 0 (0) | disease control rating WPM ([8]; 50.0 ppm): 0 (0) | disease control rating WPM ([8]; 200.0 ppm): 0 (0) | disease control rating WSN ([9]; 12.5 ppm): 0 (0) | disease control rating WSN ([9]; 50.0 ppm): 0 (0) | disease control rating WSN ([9]; 200.0 ppm): 0 (0) | activity against other fungi in vitro [10]: Little or no activity | disease control, RB [11]: Little to no control | reduction of disease severity, RB [11]: about 85% | disease control rating GDM ([12]; 12.5 ppm): 0 (0) | disease control rating GDM ([12]; 50.0 ppm): 4 (45-59) | disease control rating GDM ([12]; 200.0 ppm): 6 (75-89) | reduction of disease severity, GDM ([12]; greenhouse test, 200 ppm): about 85% | disease control, GDM ([12]; greenhouse test, dosages lower than 200 ppm): Little to no control | mycelial inhibition PYTHUL ([13]; 1.0 ppm): 3 | mycelial inhibition PYTHUL ([13]; 10.0 ppm): 7 | activity against Pythium ([13]; 10 ppm): active | mycelial inhibition PYTHUL ([13]; 25.0 ppm): 7 | activity against Pythium ([13]; dosages lower than 10 ppm): not at lower dosages
